Experiment [1] relates to Smn protein in human motor neurons derived from SMA iPS cells. Description: Smn protein assay in human motor neurons. It is filed as cell-based. Particulars: 72 hours, increasing concentrations (FIG. 10). The protocol:
Smn immunofluorescent confocal microscopy is used to quantify the level of Smn protein in human motor neurons treated with test compounds.
Protocol. Human motor neurons derived from SMA iPS cells (Ebert et al., Nature, 2009, […]; and, Rubin et al., BMC Biology, 2011, 9:42) are treated with test compound at various concentrations for 72 hours. The level of Smn protein in the cell nucleus is quantified using Smn immunostaining and confocal fluorescence microscopy essentially as described in Makhortova et al., Nature Chemical Biology, 2011, 7:544. The level of Smn protein in compound-treated samples is normalized to that in vehicle-treated samples and plotted as a function of the compound concentration.

For experiment [2], the system named is SMN2 mRNA in GM03813 SMA patient cells. The experiment can be described thus: Endogenous SMN2 mRNA RT-qPCR splicing assay in cultured cells. It is filed as cell-based, human. As to conditions: Type 1 SMA patient fibroblasts, increasing concentrations, 24 hr, versus vehicle (FIG. 4). The protocol: The reverse transcription-quantitative PCR-based (RT-qPCR) assay is used to quantify the levels of the full length and Δ7 SMN2 mRNA in primary cells and cell lines containing the SMN2 gene treated with a test compound.
Protocol. GM03813 SMA patient cells (5,000 cells/well) are seeded in 200 μL of cell culture medium (DMEM plus 10% FBS) in 96-well flat-bottom plates and the plate is immediately swirled to ensure proper dispersal of cells, forming an even monolayer of cells. Cells are allowed to attach for at least 4-6 hrs. Test compounds are serially diluted 3.16-fold in 100% DMSO to generate a 7-point concentration curve. A solution of test compound (1 μL, 200× in DMSO) is added to each test well and 1 μL DMSO is added to each control well. The plate is incubated for 24 hrs in a cell culture incubator (37° C., 5% CO2, 100% relative humidity). The cells are then lysed in Cells-To-Ct lysis buffer and the lysate is stored at −80° C.
SMN2-specific spliced products and GAPDH mRNA are identified using the following primers and probes in Table 5. Primer SMN FL Forward B (SEQ ID NO. 7) hybridizes to a nucleotide sequence in exon 7 (nucleotide 32 to nucleotide 54) and exon 8 (nucleotide 1 to nucleotide 4), primer SMN Δ7 Forward B (SEQ ID NO. 8) hybridizes to a nucleotide sequence in exon 6 (nucleotide 87 to nucleotide 111) and exon 8 (nucleotide 1 to nucleotide 3), primer SMN Reverse B (SEQ ID NO. 9) hybridizes to a nucleotide sequence in exon 8 (nucleotide 39 to nucleotide 62), probe SMN Probe B (SEQ ID NO. 10) hybridizes to a nucleotide sequence in exon 8 (nucleotide 7 to nucleotide 36). These primers and probes hybridize to nucleotide sequences common to human SMN1 and SMN2 mRNA. Since the SMA patient cells used in Example 3 contain only the SMN2 gene, RT-qPCR can quantify only SMN2 full-length and Δ7 mRNA.
The SMN forward and reverse primers are used at final concentrations of 0.4 μM. The SMN probe is used at a final concentration of 0.15 μM. GAPDH primers are used at final concentrations of 0.1 μM and the probe at 0.075 μM. […]
The increase of SMN2 FL and decrease in SMN2 Δ7 mRNA relative to those in cells treated with vehicle control are determined from real-time PCR data using a modified ΔΔCt method (as described in Livak and Schmittgen, Methods, 2001, 25:402-8). The amplification efficiency (E) is calculated from the slope of the amplification curve for SMN2 FL, SMN2 Δ7, and GAPDH individually. The abundances of SMN2 FL, SMN2 Δ7, and GAPDH are then calculated as (1+E)^−Ct, where Ct is the threshold value for each amplicon. […]

Take `COc1ccc(-c2cc(=O)n3cc(N4CCNCC4)ccc3n2)cc1OC` [Cpd 6, 2-(3,4-dimethoxyphenyl)-7-(piperazin-1-yl)-4H-pyrido[1,2-a]pyrimidin-4-one]: in experiment [1], the “Smn protein in the nucleus” value is “progressively more Smn protein in the nucleus”. In addition, in experiment [2], the “SMN2 FL mRNA” value is recorded as “progressively more SMN2 FL mRNA” and the “SMN2 Δ7 mRNA” value is given as “less SMN2 Δ7 mRNA”.

For `Cc1cn2nc(-c3cc(=O)n4cc(N5CCN(C)CC5)ccc4n3)cc2c(C)n1` [Cpd 170, 2-(4,6-dimethylpyrazolo[1,5-a]pyrazin-2-yl)-7-(4-methylpiperazin-1-yl)-4H-pyrido[1,2-a]pyrimidin-4-one], in experiment [2], the “SMN2 FL mRNA” value was “progressively more SMN2 FL mRNA” and the “SMN2 Δ7 mRNA” value was “less SMN2 Δ7 mRNA”.

The values are drawn from patent US11753407B2, “Compounds for treating spinal muscular atrophy” (PTC Therapeutics, Inc., priority 2012, dated 2023).
